16 compounds from PubChem BioAssay (NCI) can be followed below.

Several values for one entry are separate records, joined by “and”; a condition that tells them apart may be missing. Identical values can stand only once.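 Method: 48-hour compound exposure of cells in 96-well plates, five concentrations, linear interpolation of endpoints. The concentration for 50% growth inhibition is given as GI50. TGI is the concentration that stops growth completely.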

Assay in all cases: DTP human tumour cell line panel, 48 h
Test [1] relates to ACHN renal.
For test [2], the system named is NCI-H522 lung.
The test system of test [3] is SK-MEL-28 melanoma.
Test [4] has as its system SNB-19 CNS.
Test [5] has as its system OVCAR-8 ovarian.
Test [6] relates to NCI-H460 lung.
Test [7] relates to SF-268 CNS.
Test [8] has as its system MCF7 breast.
Test [9] concerns SK-MEL-2 melanoma.
The subject of test [10] is SW-620 colon.

One may read the GI50 as the concentration at which growth is held to half of that of the control. What is called TGI is the concentration at which net growth stops. Lower therefore signals more potent growth arrest. Consider `NC(=O)c1ccc2nc(-c3ccc(Oc4ccc(Cl)cc4)cc3)[nH]c2c1`, for which the GI50 is 13.9 µM and 14.4 µM in test [1]; 18.9 µM and 19.9 µM in test [2]; 40.4 µM and 15.6 µM in test [3]; > 75 µM and 22.5 µM in [4]; 58 µM and 12.9 µM in test [5]; 23.4 µM and 14.1 µM in test [6]. The GI50 in test [7] was 36.7 µM and 19.2 µM; in test [8] it was 33.1 µM and 6.4 µM; in [9] it was 18.3 µM and 21.2 µM; in test [10], 23 µM and 9.61 µM. The TGI in test [1] is 75 µM and 30.2 µM; in [2] it was 75 µM and 75.2 µM; in test [3], 75 µM and 29 µM; in test [4] it was > 75 µM and 52.6 µM; in test [5], 75 µM and 34.4 µM; in test [6], 75 µM and 32.7 µM. In addition, the TGI in test [7] is 75 µM and 46.2 µM; in [8], 75 µM and 23.9 µM; in test [9], 75 µM and 40.2 µM; in test [10], 75 µM and 25.9 µM.
Consider `COc1ccc2c(c1)n([O-])c1ccccc1[n+]2=O`, for which the GI50 in [1] was 16.3 µM and 5.24 µM; in [4], 51.6 µM and 20 µM; in test [6] it was 16.8 µM and 5.54 µM; in [7] it was 31.5 µM and 15.2 µM; in test [8] it was 20.3 µM and 8.97 µM. Further, the TGI in test [1] is 41.5 µM and 47.3 µM; in test [2], 53.4 µM and 32.1 µM; in test [3] it was greater than 100 µM; in [4], > 100 µM and 89.6 µM; in [5], > 100 µM and 55.7 µM; in [6] it was > 100 µM and 34.3 µM. The TGI is > 100 µM and 53.7 µM in test [7]; > 100 µM and 36 µM in test [8]; 74.7 µM and 54.5 µM in test [9]; greater than 100 µM in [10].
`CC(C)CCN=C(N)c1ccc(N2CCN(c3ccc(C(N)=NCCC(C)C)cc3)CC2)cc1`: the GI50 in test [1] is 56.8 µM; in [2] it was 8.73 µM; in test [3] it was 5.89 µM; in [4], 6.52 µM; in [5], 6.57 µM; in test [6], 14.5 µM. In addition, the GI50 is 33.1 µM in [7], 16.2 µM in test [8], 9.37 µM in test [9] and 15.1 µM in test [10]. Further, the TGI in test [1] was greater than 100 µM; in test [2], 73.4 µM; in [3], 24.3 µM; in [4] it was 24.2 µM; in test [5], greater than 100 µM; in [6], 49.3 µM. The TGI in [7] is greater than 100 µM; in test [8] it was 33.8 µM; in test [9], greater than 100 µM; in test [10], 91.2 µM.
For `COc1cc(OC)c(/C=C/c2cnc3ccccc3n2)c(OC)c1`, the TGI in test [1], in test [2], in test [3], in test [4], in [5] and in test [6] was greater than 10 µM throughout. The TGI in [7], in test [8], in test [9] and in [10] was greater than 10 µM in each case.
For the compound `Fc1ccc(Nc2nc3nonc3nc2Nc2ccc(F)cc2)cc1`, the GI50 in test [1] is 0.399 µM; in test [2], 0.194 µM; in [3], 0.505 µM; in [4], 0.386 µM; in test [5] it was 0.402 µM; in test [6], 0.319 µM. The GI50 is 0.505 µM in test [7], 0.567 µM in test [8], 0.285 µM in test [9] and 0.573 µM in [10]. Also, the TGI was found to be 7.09 µM in test [1]; 0.561 µM in [2]; 11 µM in test [3]; 16.1 µM in test [4]; 15.4 µM in test [5]; 10.5 µM in [6]. Besides, the concentration for total growth inhibition (TGI) in [7] came to 14.3 µM; in test [8], 11.2 µM; in [9] it was 0.807 µM; in test [10], 14.2 µM.
Consider `COc1ccc(/C(C#N)=C/c2ccc(OC)c(OC)c2)cc1`, for which the TGI in [1], in test [2], in test [3], in test [4], in test [5] and in [6] was greater than 100 µM throughout. The TGI in [7], in [8], in [9] and in test [10] was greater than 100 µM each time.
For `COc1cc(Nc2ccnc(NCCCNc3ccnc4cc(Cl)ccc34)n2)cc(OC)c1`, the GI50 in [1] is 1.8 µM; in test [2], 1.8 µM; in [3] it was 1.66 µM; in test [4] it was 2.32 µM; in [5], 2.07 µM; in test [6], 1.46 µM. For the same compound, the GI50 was 1.8 µM in [7], 1.28 µM in [8], 1.91 µM in test [9] and 1.28 µM in test [10]. Moreover, the TGI came to 3.53 µM in test [1]; 3.78 µM in test [2]; 3.09 µM in [3]; 8 µM in test [4]; 5.65 µM in test [5]; 3.77 µM in test [6]. The TGI in test [7] was 3.88 µM; in [8] it was 3 µM; in test [9], 3.54 µM; in test [10], 2.78 µM.
In the case of `Nc1nc(-c2ccccc2)nc(N)c1N=O`, the GI50 was 4 µM in test [1]; 2.27 µM in test [2]; 11.9 µM in test [3]; 14.4 µM in test [4]; 7.55 µM in [5]; 8.02 µM in test [6]. For the same compound, the GI50 in [7] is 12.3 µM; in test [8] it was 5.85 µM; in test [9] it was 19.5 µM; in test [10], 2 µM. In addition, the TGI in [1] stood at 14.1 µM; in test [2] it was 7.27 µM; in [3], 30.6 µM; in test [4], 33 µM; in [5] it was 53.7 µM; in [6] it was 27.9 µM. Moreover, the TGI is 39.2 µM in test [7], 27.1 µM in [8], 41.6 µM in test [9] and 5.77 µM in [10].
Turning to `O=C(NP(=O)(N1CC1)N1CC1)c1cc(I)ccc1I`, the TGI in test [1] is greater than 65.1 µM; in test [2], greater than 92.9 µM; in test [3], greater than 100 µM; in [4] it was greater than 100 µM; in test [5], greater than 94.4 µM; in test [6], greater than 79 µM. Further, the TGI in test [7], in test [8], in [9] and in [10] was greater than 100 µM throughout.
In the case of `Cc1cc(Cl)ccc1NC(=O)c1cc2ccccc2cc1O`, the GI50 in test [1] is 0.583 µM; in test [2], 0.304 µM; in test [3] it was 0.767 µM; in [4] it was 0.736 µM; in test [5], 0.882 µM; in [6] it was 0.511 µM. The GI50 was 1.91 µM in test [7], 1.57 µM in test [8], 0.432 µM in [9] and 1.59 µM in test [10]. Besides, the TGI is greater than 100 µM in [1]; greater than 29.4 µM in test [2]; greater than 100 µM in test [3]; greater than 100 µM in test [4]; greater than 100 µM in test [5]; greater than 100 µM in [6]. For the same compound, the TGI in [7], in test [8] and in test [10] was greater than 100 µM each time.
Regarding `NC(=O)c1cc(-c2ccc(F)cc2)cc(-c2ccncc2)c1N`, the GI50 in test [1] is greater than 25 µM; in test [2] it was greater than 25 µM; in test [3], greater than 25 µM; in test [4] it was 24.3 µM; in test [5], greater than 25 µM; in test [6], greater than 25 µM. The GI50 in test [7], in [8], in test [9] and in test [10] was greater than 25 µM each time. The TGI in test [1], in [2], in [3], in [4], in [5] and in [6] was greater than 25 µM throughout. For the same compound, the concentration for total growth inhibition (TGI) in test [7], in test [8], in test [9] and in [10] was greater than 25 µM in each case.
Take `CCC1CCc2nc3sc(C(=O)Nc4cccc(F)c4)c(N)c3cc2C1` (centres undefined): the GI50 in test [1], in test [2], in test [3], in [4], in test [5] and in [6] was greater than 100 µM throughout. The GI50 in [7] was greater than 100 µM; in test [8] it was 0.313 µM; in [9], greater than 100 µM; in [10], 0.707 µM. Besides, the TGI in test [1], in [2], in test [3], in [4], in test [5] and in test [6] was greater than 100 µM in each case. In addition, the TGI in test [7], in test [8], in test [9] and in [10] was greater than 100 µM in each case.
Consider `COc1ccc(OC)c(/C=C(/C)[N+](=O)[O-])c1`, for which the GI50 in [1] is 1.77 µM; in test [2], 1.93 µM; in test [3], 2.22 µM; in test [4], 9.52 µM; in test [5], 2.13 µM; in test [6], 3.41 µM. The GI50 is 2.12 µM in test [7], 0.832 µM in test [8], 2.16 µM in test [9] and 1.79 µM in test [10]. The TGI is 3.29 µM in [1]; 3.64 µM in [2]; 4.73 µM in test [3]; 23.3 µM in [4]; 4.91 µM in test [5]; 12.7 µM in [6]. Besides, the TGI in test [7] came out at 5.22 µM; in test [8], 2.21 µM; in test [9], 4.41 µM; in test [10], 3.78 µM.
As to `COc1ccc(-c2nc3ccccn3c2/C=C/C(=O)c2cc(OC)c(OC)c(OC)c2)cc1`, the GI50 in test [1] was 3.26 µM; in test [2] it was 3.12 µM; in test [3], 7.1 µM; in test [4] it was 25.2 µM; in test [5] it was 3.92 µM; in test [6], 4.09 µM. The GI50 in test [7] is 4 µM; in test [8], 2.38 µM; in test [9] it was 4.95 µM; in test [10], 4.16 µM. The TGI in test [1] was greater than 100 µM; in [2] it was 23.4 µM; in test [3], greater than 100 µM; in test [4], greater than 100 µM; in test [5], greater than 100 µM; in test [6], 31 µM. In addition, the TGI is greater than 100 µM in [7], 21.4 µM in test [8], greater than 100 µM in test [9] and greater than 100 µM in [10].
Regarding `CC(=O)O[C@]1(C(C)=O)CC[C@H]2[C@@H]3C=C(C)C4=CC(=O)CC[C@]4(C)[C@H]3CC[C@@]21C`, the GI50 is greater than 74.1 µM in test [1]; 53.2 µM in test [2]; greater than 100 µM in [3]; greater than 82.9 µM in test [4]; greater than 75.4 µM in test [5]; 98.5 µM in [6]. Also, the GI50 in [7] was greater than 92.8 µM; in test [8], greater than 100 µM; in [9] it was greater than 100 µM; in test [10], greater than 100 µM. Also, the TGI in [1], in [2], in test [3], in test [4], in [5] and in test [6] was greater than 100 µM each time. The TGI in test [7], in [8], in test [9] and in test [10] was greater than 100 µM throughout.
For the compound `COc1cc2c3c(n(CCCI)c(=O)c2cc1OC)-c1cc2c(cc1C3=O)OCO2`, the GI50 in test [1] was 2.14 µM; in test [2], 8.32 µM; in [3] it was 52.1 µM; in test [4], greater than 100 µM; in [5] it was 3.16 µM; in [6], 0.272 µM. Further, the GI50 in test [7] is 1.34 µM; in [8] it was 0.404 µM; in test [9], greater than 100 µM; in [10], 3.17 µM. Besides, the TGI in test [1] was 8.34 µM; in test [2] it was greater than 100 µM; in test [3] it was greater than 100 µM; in test [4], greater than 100 µM; in test [5], 81.8 µM; in test [6], greater than 100 µM. Moreover, the TGI in [7] is greater than 100 µM; in [8], 6.01 µM; in test [9], greater than 100 µM; in test [10], greater than 100 µM.
